Experimental data as given in patent US20170087149A9, “TREATMENT FOR […]” (priority 2013, published 2017).

Tested on: collapsing trachea
Assay: Treatment of collapsing trachea in dogs (case reports)
Format: in vivo, dog
Settings: Pomeranian
Method: Upon presentation, the patient had severe dyspnea and coughing.
Oxycodone sustained release was prescribed, 10 mg twice daily. […] When appetite returned (along with resumed coughing) the patient's dosage was adjusted to 2.5 mg twice daily (cutting the 10 mg tablets in quarters). […] On two occasions when the beginning of a cough was observed, a single additional 2.5 mg tablet was administered, followed by return to the original twice-daily dosing regimen.
The treatment described in Example 1 has been successfully repeated in two additional dogs diagnosed as having collapsing trachea.

O=C(O)C(O)C(O)C(=O)O.Oc1ccc2c(c1)[C@@]13CCCC[C@@]1(O)[C@@H](C2)N(CC1CCC1)CC3 [Torbutrol, butorphenol]
cough (prior treatment, history) (history before presentation): had been controlling the cough | exercise tolerance and panting (prior treatment, history) (history before presentation): highly intolerant to exercise (to the point of having to be carried) and continuously panting | response at presentation (refractory stage) (severe intrathoracic collapsing trachea at presentation): stopped responding
